Source: patent publication US20210283092A1, “METHODS AND USES OF […] DERIVATIVES” (priority 2018, published 2021)
“Also recorded” adds a separate entry of the source.

Assays:
[1] = tested on: MSU-induced leukocyte recruitment to the dorsal air-pouch; assay: Air-pouch model, compound given 1.5 hours after MSU; type: in vivo, mice; details: 0.5 μmol/kg, after MSU
Method: (§1) An air-pouch was generated on the dorsum of mice over a period of seven days by injecting air subcutaneously. […] Seven hours after the administration of MSU, the exudate in the air pouches was harvested by two flushes with 2 ml and one with 1 ml of PBS+0.5 M EDTA and the number of recruited leukocytes determined by flow cytometry. Leukocytes were stained with an anti-CD45 and anti-Ly6 G antibody.

[2] = tested on: human neutrophils stimulated with MSU; assay: IL-1 release by TNF-α primed human neutrophils (ELISA); type: cell-based; details: 1 mg/ml MSU, 3 h
Method: (§2) Extracellular CXCL8/IL-8 or IL-1β were quantified by ELISA (Invitrogen). All samples were measured in duplicate.
The production and secretion of mature IL-1 requires two stimuli. Human neutrophils were, therefore, primed with TNF-α prior to stimulation with MSU. […] (FIG. 8H-J).

[3] = tested on: human neutrophils stimulated with MSU; assay: MSU-induced calcium mobilization in human neutrophils (Fura-2); type: cell-based; details: 1 mg/ml MSU, 30 min pre-incubation
Method: Neutrophils were isolated from venous blood of healthy adult volunteers. Briefly, venous blood was obtained in tubes containing isocitrate, red blood cells were sedimented in 2% dextran and neutrophils were aseptically purified by centrifugation on Ficoll-Paque cushions. Contaminating erythrocytes were removed by hypotonic lysis and neutrophils were resuspended in Mg^2+-free HBSS containing 1.6 mM of CaCl2.
(FIG. 7D), D1=(28a) (FIGS. 7E and 7J), D2=(39) (FIG. 7F), D3=(47a) (FIGS. 7G and 7J), D4=(89) (FIG. 7H) prior to the addition of MSU (1 mg/ml).
The intracellular calcium concentration was determined with a spectrofluorometer and is expressed as the area under the curve (from the MSU injection up to 100 sec).
Changes in cytoplasmic calcium were then measured after the addition of MSU or HBSS (the negative control) using two excitation wavelengths at 340 and 380 nm and an emission wavelength of 510 nm. The free internal calcium concentration was estimated from the ratio of the fluorescence values obtained at 340 and 380 nm. The results are calculated as the area under the curve of the intracellular calcium concentration as a function of time (0-100 sec relative to stimulus addition).
Since one of the earliest molecular events in neutrophils that is initiated by MSU is the mobilization of intracellular calcium stores, the effect of (91) (CCl), (43) and (47a) was assessed on this early signalling event. Briefly, and as described in further detail above, human neutrophils were incubated with the fluorescent calcium indicator Fura-2 prior to incubation with a range of concentrations of (91) (CCl), (43) or (47a) and stimulated with MSU. Fura-2 monitors the increase in cytoplasmic calcium caused by its release from intracellular stores.

[4] = tested on: human neutrophils stimulated with MSU; assay: CXCL8/IL-8 release by human neutrophils (ELISA); type: cell-based; details: 1 mg/ml MSU, 3 h
Method: as §2
In addition, since IL-1 induces the expression of adhesion molecules on endothelial cells as well as the synthesis of pro-inflammatory cytokines, which together promote a massive recruitment of neutrophils, the ability of CCl (91) and CH-35 (43) to dampen the production of IL-1 was also assessed.

[5] = tested on: human neutrophils stimulated with MSU; assay: Superoxide production by human neutrophils (cytochrome C reduction); type: cell-based; details: 1 mg/ml MSU
Method: The results are expressed as a ratio of the superoxide produced by the MSU control.
Superoxide production was measured using the reduction of cytochrome C assay. The difference between the optical density readings at 550 nm and 540 nm read within the first 10 minutes was multiplied by the extinction coefficient of cytochrome C to obtain the number of nmol O2 produced by 1×10^6 cells. The results are expressed as nmol O2/1×10^6 cells/ml.
An additional neutrophil effector function that is calcium-dependent, known to be activated by MSU and that can cause damage to the inflamed joint, is the production of ROS.

[6] = tested on: MSU-induced leukocyte recruitment to the dorsal air-pouch; details: literature value (Chia et al. 2008); cited from earlier work
[7] = tested on: MSU-induced leukocyte recruitment to the dorsal air-pouch; assay: Air-pouch model, compound given 5 min prior to MSU; type: in vivo, CD-1 mice
Method: as §1

N-[(7S)-1,2,3,10-tetramethoxy-9-oxo-5,6,7,9-tetrahydrobenzo[α]heptalen-7-yl] acetamide [Colchicine, reference compound]
effect on MSU-induced leukocyte recruitment at 0.5 μmol/kg [1]: no longer able to significantly inhibit; also recorded: loses its anti-inflammatory activity | concentration at which MSU-induced IL-1 production is diminished (threshold) [2]: 10 µM | lowest concentration significantly inhibiting the MSU-induced increase in intracellular calcium [3]: 10 µM | lowest concentration giving significant decrease in MSU-induced release of IL-8 [4]: 1 µM | lowest concentration inhibiting MSU-induced superoxide production [5]: 1 µM | dose that effectively dampens MSU-induced leukocyte recruitment in mice [6]: 5 µmol/kg | effect on MSU-induced leukocyte recruitment at 0.5 μmol/kg ([7]; 0.5 μmol/kg, 5 min prior to MSU): lost its potency to significantly inhibit | dose inhibiting MSU-induced leukocyte recruitment ([7]; subcutaneous 5 min prior to MSU, 7 hours): 5 µmol/kg
